Experimental data published in ChEMBL document CHEMBL5465560, “Selectivity Literature for EUbOPEN Chemogenomic Library” (2024).
Each block holds one compound with its values, some of them ahead of it.

Key:
[1] = biological target: T1, Serine/threonine-protein kinase Nek5 (Homo sapiens) (UniProt Q6P3R8); assay: Selectivity interaction (Ambit KINOMEscan and KiNATiv profiling in Jurkat cells) EUB0000090b NEK5; assay type: cell-based; settings: at 1 µM
T1 sequence (whole entry): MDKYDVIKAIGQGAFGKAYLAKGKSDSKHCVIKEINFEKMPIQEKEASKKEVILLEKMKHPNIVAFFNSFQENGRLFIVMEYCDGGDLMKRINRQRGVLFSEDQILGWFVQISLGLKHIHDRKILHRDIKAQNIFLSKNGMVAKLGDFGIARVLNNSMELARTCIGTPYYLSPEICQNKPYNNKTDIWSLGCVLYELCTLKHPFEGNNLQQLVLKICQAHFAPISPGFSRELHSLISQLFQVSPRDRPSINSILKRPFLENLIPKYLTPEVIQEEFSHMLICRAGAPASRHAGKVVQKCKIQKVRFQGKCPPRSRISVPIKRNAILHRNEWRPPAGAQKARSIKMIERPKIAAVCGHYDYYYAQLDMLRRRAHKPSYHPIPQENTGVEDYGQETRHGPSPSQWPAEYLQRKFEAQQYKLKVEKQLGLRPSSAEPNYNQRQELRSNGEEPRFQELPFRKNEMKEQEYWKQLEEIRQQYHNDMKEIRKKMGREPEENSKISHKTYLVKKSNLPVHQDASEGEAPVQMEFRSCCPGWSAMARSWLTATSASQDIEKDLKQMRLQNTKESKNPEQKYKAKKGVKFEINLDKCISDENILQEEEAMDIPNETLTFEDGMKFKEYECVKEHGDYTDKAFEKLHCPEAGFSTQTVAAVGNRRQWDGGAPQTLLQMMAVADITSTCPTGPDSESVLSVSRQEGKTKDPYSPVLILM

[2] = biological target: T2, Mitogen-activated protein kinase kinase kinase 6 (Homo sapiens) (UniProt O95382); assay: Selectivity interaction (KinomeScan (DiscoverX)) EUB0000595a MAP3K6; settings: at 10 µM
T2 sequence (whole entry): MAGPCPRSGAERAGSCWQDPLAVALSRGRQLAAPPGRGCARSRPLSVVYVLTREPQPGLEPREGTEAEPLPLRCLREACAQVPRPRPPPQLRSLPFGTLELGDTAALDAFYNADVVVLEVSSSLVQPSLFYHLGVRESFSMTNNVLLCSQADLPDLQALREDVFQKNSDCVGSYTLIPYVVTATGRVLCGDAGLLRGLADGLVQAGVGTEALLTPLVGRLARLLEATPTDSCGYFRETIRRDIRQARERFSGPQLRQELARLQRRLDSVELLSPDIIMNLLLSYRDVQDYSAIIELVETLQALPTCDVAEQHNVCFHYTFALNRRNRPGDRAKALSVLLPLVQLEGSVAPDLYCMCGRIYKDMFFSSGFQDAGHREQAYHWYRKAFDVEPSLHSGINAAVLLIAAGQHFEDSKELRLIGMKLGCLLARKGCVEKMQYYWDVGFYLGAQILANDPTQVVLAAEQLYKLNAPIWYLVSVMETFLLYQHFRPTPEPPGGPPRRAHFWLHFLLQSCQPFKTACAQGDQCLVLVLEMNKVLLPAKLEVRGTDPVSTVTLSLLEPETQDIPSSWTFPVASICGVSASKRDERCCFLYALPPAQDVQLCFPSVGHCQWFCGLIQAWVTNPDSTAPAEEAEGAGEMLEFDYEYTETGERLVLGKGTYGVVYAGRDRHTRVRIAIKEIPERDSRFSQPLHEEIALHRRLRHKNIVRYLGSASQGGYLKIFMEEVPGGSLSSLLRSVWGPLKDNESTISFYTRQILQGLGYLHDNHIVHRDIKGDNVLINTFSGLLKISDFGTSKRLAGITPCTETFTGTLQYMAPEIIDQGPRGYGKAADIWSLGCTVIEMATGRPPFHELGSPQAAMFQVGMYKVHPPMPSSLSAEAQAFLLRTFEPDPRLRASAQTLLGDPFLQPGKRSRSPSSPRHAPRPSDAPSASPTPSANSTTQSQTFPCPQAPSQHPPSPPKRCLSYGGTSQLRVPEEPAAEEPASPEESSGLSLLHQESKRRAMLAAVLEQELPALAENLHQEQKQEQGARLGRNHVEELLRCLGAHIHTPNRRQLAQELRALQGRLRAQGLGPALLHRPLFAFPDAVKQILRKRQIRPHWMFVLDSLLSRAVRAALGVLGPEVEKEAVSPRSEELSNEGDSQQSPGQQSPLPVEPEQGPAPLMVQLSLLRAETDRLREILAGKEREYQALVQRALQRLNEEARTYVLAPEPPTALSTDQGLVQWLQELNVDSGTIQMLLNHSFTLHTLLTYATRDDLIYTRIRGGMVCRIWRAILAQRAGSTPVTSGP

[3] = biological target: T3, Aurora kinase A (Homo sapiens) (UniProt O14965); assay: Selectivity interaction (Kinase panel (KiNativ target engagement assay in Jurkat cells)) EUB0001635a STK6; assay type: cell-based; settings: at 1 µM
T3 sequence (whole entry): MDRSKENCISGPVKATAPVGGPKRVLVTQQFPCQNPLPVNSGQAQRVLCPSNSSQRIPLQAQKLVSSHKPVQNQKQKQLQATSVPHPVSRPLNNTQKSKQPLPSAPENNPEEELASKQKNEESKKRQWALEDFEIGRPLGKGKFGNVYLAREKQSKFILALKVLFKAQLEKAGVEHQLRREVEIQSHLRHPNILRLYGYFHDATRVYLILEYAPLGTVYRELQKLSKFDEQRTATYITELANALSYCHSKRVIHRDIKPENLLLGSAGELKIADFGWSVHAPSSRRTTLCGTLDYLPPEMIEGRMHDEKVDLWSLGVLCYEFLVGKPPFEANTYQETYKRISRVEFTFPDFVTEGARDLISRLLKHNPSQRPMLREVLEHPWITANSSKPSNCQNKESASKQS

[4] = biological target: Serine/threonine-protein kinase Nek7 (Homo sapiens) (UniProt Q8TDX7); assay: Selectivity interaction (ActivX KiNativ screen (kinase selectivity in THP-1 cell lysates)) EUB0000639a NEK7; assay type: subcellular; settings: lysate, at 5 µM
Serine/threonine-protein kinase Nek7 (Homo sapiens), sequence (Q8TDX7 whole entry, looked up): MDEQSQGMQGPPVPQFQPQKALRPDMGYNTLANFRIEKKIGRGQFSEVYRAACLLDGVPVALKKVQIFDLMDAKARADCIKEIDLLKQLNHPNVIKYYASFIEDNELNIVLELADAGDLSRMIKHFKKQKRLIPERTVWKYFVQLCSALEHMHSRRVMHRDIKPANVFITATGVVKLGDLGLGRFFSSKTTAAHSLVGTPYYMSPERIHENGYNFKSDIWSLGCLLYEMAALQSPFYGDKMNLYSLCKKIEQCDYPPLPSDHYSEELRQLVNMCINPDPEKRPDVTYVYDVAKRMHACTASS

Compound: CN(C)C/C=C/C(=O)Nc1ccc(C(=O)N2CCCC(Nc3ncc(Cl)c(-c4c[nH]c5ccccc45)n3)C2)cc1 (centres undefined)
% of control [1]: 86%

Compound: COCC(=O)NC/C=C/c1ccc2ncnc(Nc3ccc(Oc4ccc(C)nc4)c(C)c3)c2c1 [CP-724714]
% of control [2]: 100%

Compound: C=CC(=O)Nc1ccc(C(=O)Nc2[nH]nc3c2CN(C(=O)N[C@H](CN(C)C)c2ccccc2)C3(C)C)cc1
% of engagement [3]: 14.1%

% of inhibition [4]: -1.4%
Compound: CC[C@@H]1[C@H](F)C(=O)N[C@@H]1COc1nccc2cc(C(N)=O)c(OC)cc12 [ZIMLOVISERTIB]
